Experimental data from paper PMC9683047, “Design, synthesis and biological evaluation of 4-aminoquinoline derivatives as receptor-interacting protein kinase 2 (RIPK2) inhibitors” (Journal of Enzyme Inhibition and Medicinal Chemistry, 2022).

Experiments:
Type in all cases: biochemical
AMPKα1(h) = target: T1, AMPKα1(h) (Homo sapiens, UniProt Q13131); experiment: Kinase selectivity panel: AMPKα1
T1 construct: purchased Eurofins (Millipore) KinaseProfiler Diversity Panel
Method: (§1) To confirm the anti-inflammatory effect was caused by RIPK2 inhibition, compound 14 was subjected to kinase selectivity evaluation (Figure 4). Kinase selectivity profile of compound 14 as shown by the diversity kinase Panel screen against 70 kinases assayed at 1 µM. Among all tested 70 kinases, only five were inhibited over 90% at 1 µM including Fyn, Lyn, BTK, Abl and RIPK2. Three kinases including KDR, CDK9 and LOK were inhibited 50–90% at 1 µM.

JAK2(h) = target: T2, JAK2(h) (Homo sapiens, UniProt O60674); experiment: Kinase selectivity panel: JAK2; conditions: 1 µM
T2 construct: purchased Eurofins (Millipore) KinaseProfiler Diversity Panel
Method: as §1

DRAK1(h) = target: T3, DRAK1(h) (Homo sapiens, UniProt Q9UEE5); experiment: Kinase selectivity panel: DRAK1; conditions: 1 µM
T3 construct: purchased Eurofins (Millipore) KinaseProfiler Diversity Panel
T3 sequence (Q9UEE5 whole entry): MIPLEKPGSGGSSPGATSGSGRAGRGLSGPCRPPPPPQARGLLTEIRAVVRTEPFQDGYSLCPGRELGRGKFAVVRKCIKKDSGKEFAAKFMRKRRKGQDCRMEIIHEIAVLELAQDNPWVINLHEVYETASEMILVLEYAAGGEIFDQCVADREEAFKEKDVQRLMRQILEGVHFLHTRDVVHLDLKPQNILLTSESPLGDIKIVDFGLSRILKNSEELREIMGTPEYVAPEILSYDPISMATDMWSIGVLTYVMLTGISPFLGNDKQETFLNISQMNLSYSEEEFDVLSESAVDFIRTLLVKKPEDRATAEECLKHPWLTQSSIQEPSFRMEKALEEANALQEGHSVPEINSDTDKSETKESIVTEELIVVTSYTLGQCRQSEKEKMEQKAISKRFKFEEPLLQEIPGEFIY
Method: as §1

Syk(h) = target: T4, Syk(h) (Homo sapiens, UniProt P43405); experiment: Kinase selectivity panel: Syk
T4 construct: purchased Eurofins (Millipore) KinaseProfiler Diversity Panel
Method: as §1

CDK9/cyclin T1(h) = target: T5, CDK9/cyclin T1(h) (Homo sapiens, UniProt P50750); experiment: Kinase selectivity panel: CDK9/cyclin T1
T5 construct: purchased Eurofins (Millipore) KinaseProfiler Diversity Panel
T5 sequence (P50750 whole entry): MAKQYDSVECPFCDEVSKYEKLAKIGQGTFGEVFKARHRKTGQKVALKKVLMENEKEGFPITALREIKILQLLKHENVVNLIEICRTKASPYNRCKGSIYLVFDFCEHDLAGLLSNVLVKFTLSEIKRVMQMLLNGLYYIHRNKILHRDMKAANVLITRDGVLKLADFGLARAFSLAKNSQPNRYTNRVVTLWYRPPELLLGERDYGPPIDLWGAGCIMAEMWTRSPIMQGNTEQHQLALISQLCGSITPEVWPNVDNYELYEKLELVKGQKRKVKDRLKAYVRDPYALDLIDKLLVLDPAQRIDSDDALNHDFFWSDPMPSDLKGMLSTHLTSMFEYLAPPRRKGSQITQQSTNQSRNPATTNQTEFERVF
T5 sequence (O60563 whole entry partner): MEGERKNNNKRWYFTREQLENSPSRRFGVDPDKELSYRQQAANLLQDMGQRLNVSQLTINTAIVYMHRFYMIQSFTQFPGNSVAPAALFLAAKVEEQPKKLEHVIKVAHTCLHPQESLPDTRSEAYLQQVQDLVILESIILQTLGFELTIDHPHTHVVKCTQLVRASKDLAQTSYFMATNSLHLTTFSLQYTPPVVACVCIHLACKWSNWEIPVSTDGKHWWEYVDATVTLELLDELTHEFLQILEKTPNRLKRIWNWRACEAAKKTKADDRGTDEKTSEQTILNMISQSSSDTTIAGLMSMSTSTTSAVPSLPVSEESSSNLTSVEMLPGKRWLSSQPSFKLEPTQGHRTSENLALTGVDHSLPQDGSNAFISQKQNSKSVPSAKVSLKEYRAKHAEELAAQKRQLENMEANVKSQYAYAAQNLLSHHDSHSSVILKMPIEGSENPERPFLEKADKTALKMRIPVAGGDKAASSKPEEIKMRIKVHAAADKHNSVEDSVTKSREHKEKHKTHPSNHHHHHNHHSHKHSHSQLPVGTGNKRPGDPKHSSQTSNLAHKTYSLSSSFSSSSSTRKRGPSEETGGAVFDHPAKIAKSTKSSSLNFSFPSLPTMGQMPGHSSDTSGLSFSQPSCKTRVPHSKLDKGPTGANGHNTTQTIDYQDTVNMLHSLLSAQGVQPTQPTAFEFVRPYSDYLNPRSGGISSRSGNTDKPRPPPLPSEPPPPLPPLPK
Method: as §1

ASK1(h) = target: T6, ASK1(h) (Homo sapiens, UniProt Q99683); experiment: Kinase selectivity panel: ASK1
T6 construct: purchased Eurofins (Millipore) KinaseProfiler Diversity Panel
Method: as §1

eEF-2K(h) = target: T7, eEF-2K(h) (Homo sapiens, UniProt O00418); experiment: Kinase selectivity panel: eEF-2K
T7 construct: purchased Eurofins (Millipore) KinaseProfiler Diversity Panel
T7 sequence (O00418 whole entry): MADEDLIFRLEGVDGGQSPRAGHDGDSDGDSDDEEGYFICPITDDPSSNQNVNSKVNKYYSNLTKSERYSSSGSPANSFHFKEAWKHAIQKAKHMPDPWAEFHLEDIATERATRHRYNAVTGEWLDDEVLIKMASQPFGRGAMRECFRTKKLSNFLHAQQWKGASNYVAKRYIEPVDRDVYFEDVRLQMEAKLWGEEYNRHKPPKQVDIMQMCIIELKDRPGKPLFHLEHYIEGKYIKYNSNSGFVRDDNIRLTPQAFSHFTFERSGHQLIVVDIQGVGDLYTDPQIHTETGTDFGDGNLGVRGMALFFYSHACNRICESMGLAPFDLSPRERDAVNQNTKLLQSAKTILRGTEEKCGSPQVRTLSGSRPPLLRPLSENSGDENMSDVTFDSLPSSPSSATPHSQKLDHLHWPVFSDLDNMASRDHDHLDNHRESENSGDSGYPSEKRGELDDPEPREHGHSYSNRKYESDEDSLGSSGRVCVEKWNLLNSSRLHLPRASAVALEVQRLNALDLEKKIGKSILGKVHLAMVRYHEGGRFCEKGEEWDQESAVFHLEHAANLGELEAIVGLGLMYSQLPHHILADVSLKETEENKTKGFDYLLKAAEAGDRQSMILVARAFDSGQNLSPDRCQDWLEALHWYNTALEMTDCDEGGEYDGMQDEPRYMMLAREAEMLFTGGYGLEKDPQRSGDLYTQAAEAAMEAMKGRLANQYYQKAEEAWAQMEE
Method: as §1

p70S6K(h) = target: T8, p70S6K(h) (Homo sapiens, UniProt P23443); experiment: Kinase selectivity panel: p70S6K
T8 construct: purchased Eurofins (Millipore) KinaseProfiler Diversity Panel
Method: as §1

IRAK4(h) = target: T9, IRAK4(h) (Homo sapiens, UniProt Q9NWZ3); experiment: Kinase selectivity panel: IRAK4
T9 construct: purchased Eurofins (Millipore) KinaseProfiler Diversity Panel
T9 sequence (Q9NWZ3 whole entry): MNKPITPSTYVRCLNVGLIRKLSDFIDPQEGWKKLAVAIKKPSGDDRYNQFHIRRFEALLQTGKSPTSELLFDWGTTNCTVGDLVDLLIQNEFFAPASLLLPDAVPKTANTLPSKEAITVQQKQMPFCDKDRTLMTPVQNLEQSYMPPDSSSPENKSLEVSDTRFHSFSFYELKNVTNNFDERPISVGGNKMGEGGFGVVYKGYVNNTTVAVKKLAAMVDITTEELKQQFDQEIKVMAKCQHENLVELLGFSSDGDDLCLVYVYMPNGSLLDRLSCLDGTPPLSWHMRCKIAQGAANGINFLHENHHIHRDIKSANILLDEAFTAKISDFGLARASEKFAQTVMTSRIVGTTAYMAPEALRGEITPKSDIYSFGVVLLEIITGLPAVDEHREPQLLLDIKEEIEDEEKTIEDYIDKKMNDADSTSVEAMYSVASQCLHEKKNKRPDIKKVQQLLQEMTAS
Method: as §1

CDK7/cyclinH/MAT1(h) = target: T10, CDK7/cyclinH/MAT1(h) (Homo sapiens, UniProt P50613); experiment: Kinase selectivity panel: CDK7/cyclinH/MAT1
T10 construct: purchased Eurofins (Millipore) KinaseProfiler Diversity Panel
T10 sequence (P50613 whole entry): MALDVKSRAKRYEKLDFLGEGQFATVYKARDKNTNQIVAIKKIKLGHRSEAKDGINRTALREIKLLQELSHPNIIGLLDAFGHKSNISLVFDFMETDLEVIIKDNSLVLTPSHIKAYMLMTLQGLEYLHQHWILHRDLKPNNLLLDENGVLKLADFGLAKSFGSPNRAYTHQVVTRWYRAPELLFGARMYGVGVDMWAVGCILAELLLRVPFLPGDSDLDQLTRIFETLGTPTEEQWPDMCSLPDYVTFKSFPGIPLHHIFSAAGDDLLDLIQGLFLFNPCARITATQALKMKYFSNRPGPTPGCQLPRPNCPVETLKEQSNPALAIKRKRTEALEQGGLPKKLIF
T10 sequence (P51946 whole entry partner): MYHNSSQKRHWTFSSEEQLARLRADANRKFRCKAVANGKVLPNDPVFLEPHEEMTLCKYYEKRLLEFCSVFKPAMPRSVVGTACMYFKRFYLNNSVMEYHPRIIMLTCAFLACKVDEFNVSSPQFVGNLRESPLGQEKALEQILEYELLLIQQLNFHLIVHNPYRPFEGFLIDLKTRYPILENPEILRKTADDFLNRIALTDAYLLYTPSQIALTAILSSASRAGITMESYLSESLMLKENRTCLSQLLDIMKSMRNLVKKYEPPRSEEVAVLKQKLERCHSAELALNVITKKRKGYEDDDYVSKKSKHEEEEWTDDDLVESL
T10 sequence (P51948 whole entry partner): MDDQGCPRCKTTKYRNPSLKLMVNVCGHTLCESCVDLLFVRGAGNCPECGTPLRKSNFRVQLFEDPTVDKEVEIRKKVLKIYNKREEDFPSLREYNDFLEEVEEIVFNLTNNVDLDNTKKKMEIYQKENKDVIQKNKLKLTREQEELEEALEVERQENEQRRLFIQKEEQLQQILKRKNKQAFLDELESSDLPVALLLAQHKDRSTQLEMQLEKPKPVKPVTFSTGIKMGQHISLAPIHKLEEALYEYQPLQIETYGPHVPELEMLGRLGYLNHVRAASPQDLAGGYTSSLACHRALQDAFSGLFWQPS
Method: as §1

PKG1α(h) = target: T11, PKG1α(h) (Homo sapiens, UniProt Q13976); experiment: Kinase selectivity panel: PKG1α
T11 construct: purchased Eurofins (Millipore) KinaseProfiler Diversity Panel
Method: as §1

PKCα(h) = target: T12, PKCα(h) (Homo sapiens, UniProt P17252); experiment: Kinase selectivity panel: PKCα; conditions: 1 µM
T12 construct: purchased Eurofins (Millipore) KinaseProfiler Diversity Panel
Method: as §1

T1 sequence (Q13131 whole entry): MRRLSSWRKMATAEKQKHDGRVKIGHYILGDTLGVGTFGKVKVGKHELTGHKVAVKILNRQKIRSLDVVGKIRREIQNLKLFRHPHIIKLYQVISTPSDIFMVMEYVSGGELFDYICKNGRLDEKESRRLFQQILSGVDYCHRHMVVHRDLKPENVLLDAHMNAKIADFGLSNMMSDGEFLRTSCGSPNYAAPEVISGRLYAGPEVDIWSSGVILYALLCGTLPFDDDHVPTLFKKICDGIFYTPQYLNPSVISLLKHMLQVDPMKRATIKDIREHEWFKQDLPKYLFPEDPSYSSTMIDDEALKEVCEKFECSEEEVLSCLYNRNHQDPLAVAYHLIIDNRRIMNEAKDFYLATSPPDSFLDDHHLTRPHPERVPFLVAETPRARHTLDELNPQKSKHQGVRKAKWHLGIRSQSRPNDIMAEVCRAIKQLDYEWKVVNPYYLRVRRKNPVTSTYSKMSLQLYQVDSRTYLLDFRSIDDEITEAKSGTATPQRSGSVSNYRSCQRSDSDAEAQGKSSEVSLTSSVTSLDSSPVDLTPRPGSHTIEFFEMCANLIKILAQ
T1 sequence (Q9Y478 whole entry partner): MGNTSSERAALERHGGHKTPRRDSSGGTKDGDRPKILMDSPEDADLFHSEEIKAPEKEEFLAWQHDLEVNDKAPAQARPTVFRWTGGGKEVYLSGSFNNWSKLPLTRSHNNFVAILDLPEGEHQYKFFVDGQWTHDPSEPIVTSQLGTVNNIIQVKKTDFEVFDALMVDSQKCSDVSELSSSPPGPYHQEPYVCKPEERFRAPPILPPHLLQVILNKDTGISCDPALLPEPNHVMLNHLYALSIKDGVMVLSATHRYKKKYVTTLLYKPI
T1 sequence (P54619 whole entry partner): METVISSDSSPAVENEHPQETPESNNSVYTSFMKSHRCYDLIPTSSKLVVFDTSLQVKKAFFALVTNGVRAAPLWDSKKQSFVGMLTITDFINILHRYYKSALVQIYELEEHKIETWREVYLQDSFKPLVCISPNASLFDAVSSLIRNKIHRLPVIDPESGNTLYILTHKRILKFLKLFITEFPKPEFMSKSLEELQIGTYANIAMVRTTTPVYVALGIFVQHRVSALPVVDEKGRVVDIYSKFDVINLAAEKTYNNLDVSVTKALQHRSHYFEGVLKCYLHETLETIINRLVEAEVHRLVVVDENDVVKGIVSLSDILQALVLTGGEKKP

Which “Remaining kinase activity (%) with compound 14 at 1 µM” value (AMPKα1(h)) does the source give for `c1cc(-c2ccc3nccc(Nc4ccc5scnc5c4)c3c2)ccn1` [Compound 14, N-(6-(pyridin-4-yl)quinolin-4-yl)benzo[d]thiazol-5-amine] here?
The value was 103.

What about the “remaining kinase activity (%)” value (JAK2(h)) of the same compound?
The value was 93.

What about the “Remaining DRAK1 activity (% of control)” value (DRAK1(h)) of the same compound?
The value was 110.

And the “% remaining kinase activity with compound 14 at 1 µM” value (Syk(h))?
Its value is 94.

What about the “remaining kinase activity (%)” value (CDK9/cyclin T1(h); 1 µM) of the same compound?
The value was 41.

What about the inhibition at 1 µM (CDK9/cyclin T1(h); at 1 µM) of the same compound?
Its inhibition at 1 µM is 50 to 90%.

What about the “ASK1 remaining activity (% of control) with compound 14 at 1 µM” value (ASK1(h)) of the same compound?
The value was 87.

And the “remaining kinase activity (% of control) with compound 14 at 1 µM” value (eEF-2K(h))?
The value was 102.

What about the “Remaining kinase activity (% of control) at 1 µM compound 14” value (p70S6K(h)) of the same compound?
Its value is 95.

What about the “Percent remaining IRAK4 activity with compound 14 at 1 µM” value (IRAK4(h)) of the same compound?
Its value is 107.

What about the “CDK7/cyclinH/MAT1(h), 14 @ 1 µM” value (CDK7/cyclinH/MAT1(h)) of the same compound?
The value was 83.

What about the “Remaining PKG1α activity (% of control) with compound 14 at 1 µM” value (PKG1α(h)) of the same compound?
Its value is 64.

And the “% remaining kinase activity” value (PKCα(h))?
Its value is 94.
